What was measured:
[1] = test system: OVCAR-5; assay: Growth inhibition of human OVCAR5 cells assessed as cell growth at 100 uM incubated for 48 hrs by sulforhodamine B assay relative to control; assay type: functional; conditions: OVCAR-5, 48 h, read-out: Activity
[2] = test system: NCI-H322M; assay: Growth inhibition of human NCI-H322M cells incubated for 48 hrs by sulforhodamine B assay; assay type: functional, cell-based
[3] = test system: Hs-578T; assay: Growth inhibition of human Hs578T cells assessed as cell growth at 1 uM incubated for 48 hrs by sulforhodamine B assay relative to control; assay type: functional; conditions: read-out: Activity
[4] = test system: NCI-H23; assay: Growth inhibition of human NCI-H23 cells assessed as cell growth at 1 uM incubated for 48 hrs by sulforhodamine B assay relative to control; assay type: functional; conditions: NCI-H23, 48 h, read-out: Activity
[5] = test system: SF-268; assay: Growth inhibition of human SF268 cells assessed as cell growth at 0.1 uM incubated for 48 hrs by sulforhodamine B assay relative to control; assay type: functional; conditions: SF-268, 48 h, read-out: Activity
[6] = test system: PC-3; assay: Growth inhibition of human PC3 cells incubated for 48 hrs by sulforhodamine B assay; assay type: functional, cell-based; conditions: PC-3, 48 h
[7] = test system: SNB-19; assay: Growth inhibition of human SNB19 cells assessed as cell growth at 0.1 uM incubated for 48 hrs by sulforhodamine B assay relative to control; assay type: functional; conditions: SNB-19, 48 h, read-out: Activity
[8] = test system: RXF 393; assay: Growth inhibition of human RXF393 cells incubated for 48 hrs by sulforhodamine B assay; assay type: functional, cell-based; conditions: RXF 393, 48 h
[9] = test system: SF-268; assay: Growth inhibition of human SF268 cells incubated for 48 hrs by sulforhodamine B assay; assay type: functional, cell-based; conditions: SF-268, 48 h
[10] = test system: U-251; assay: Growth inhibition of human U251 cells assessed as cell growth at 0.1 uM incubated for 48 hrs by sulforhodamine B assay relative to control; assay type: functional; conditions: U-251, 48 h, read-out: Activity
[11] = test system: Malme-3M; assay: Growth inhibition of human MALME-3M cells assessed as cell growth at 1 uM incubated for 48 hrs by sulforhodamine B assay relative to control; assay type: functional; conditions: read-out: Activity
[12] = test system: SF-539; assay: Growth inhibition of human SF539 cells assessed as cell growth at 1 uM incubated for 48 hrs by sulforhodamine B assay relative to control; assay type: functional; conditions: SF-539, 48 h, read-out: Activity
[13] = test system: SNB-19; assay: Growth inhibition of human SNB19 cells assessed as cell growth at 0.01 uM incubated for 48 hrs by sulforhodamine B assay relative to control; assay type: functional; conditions: SNB-19, 48 h, read-out: Activity
[14] = test system: UACC-62; assay: Growth inhibition of human UACC62 cells assessed as cell growth at 1 uM incubated for 48 hrs by sulforhodamine B assay relative to control; assay type: functional; conditions: UACC-62, 48 h, read-out: Activity
[15] = test system: IGROV-1; assay: Growth inhibition of human IGROV1 cells incubated for 48 hrs by sulforhodamine B assay; assay type: functional, cell-based; conditions: IGROV-1, 48 h
[16] = test system: OVCAR-3; assay: Growth inhibition of human OVCAR3 cells incubated for 48 hrs by sulforhodamine B assay; assay type: functional, cell-based; conditions: OVCAR-3, 48 h
[17] = test system: IGROV-1; assay: Growth inhibition of human IGROV1 cells assessed as cell growth at 100 uM incubated for 48 hrs by sulforhodamine B assay relative to control; assay type: functional; conditions: IGROV-1, 48 h, read-out: Activity
[18] = test system: UO-31; assay: Growth inhibition of human UO31 cells assessed as cell growth at 1 uM incubated for 48 hrs by sulforhodamine B assay relative to control; assay type: functional; conditions: UO-31, 48 h, read-out: Activity
[19] = test system: SN12C; assay: Growth inhibition of human SN12C cells assessed as cell growth at 1 uM incubated for 48 hrs by sulforhodamine B assay relative to control; assay type: functional; conditions: read-out: Activity
[20] = test system: NCI-H226; assay: Growth inhibition of human NCI-H226 cells assessed as cell growth at 100 uM incubated for 48 hrs by sulforhodamine B assay relative to control; assay type: functional; conditions: NCI-H226, 48 h, read-out: Activity
[21] = test system: NCI/ADR-RES; assay: Growth inhibition of human NCI/ADR-RES cells assessed as cell growth at 100 uM incubated for 48 hrs by sulforhodamine B assay relative to control; assay type: functional; conditions: read-out: Activity
[22] = test system: RXF 393; assay: Growth inhibition of human RXF393 cells assessed as cell growth at 0.1 uM incubated for 48 hrs by sulforhodamine B assay relative to control; assay type: functional; conditions: RXF 393, 48 h, read-out: Activity
[23] = test system: KM12; assay: Growth inhibition of human KM12 cells assessed as cell growth at 0.01 uM incubated for 48 hrs by sulforhodamine B assay relative to control; assay type: functional; conditions: KM12, 48 h, read-out: Activity
[24] = test system: SR; assay: Growth inhibition of human SR cells assessed as cell growth at 0.01 uM incubated for 48 hrs by sulforhodamine B assay relative to control; assay type: functional; conditions: read-out: Activity
[25] = test system: OVCAR-5; assay: Growth inhibition of human OVCAR5 cells assessed as cell growth at 0.1 uM incubated for 48 hrs by sulforhodamine B assay relative to control; assay type: functional; conditions: OVCAR-5, 48 h, read-out: Activity
[26] = test system: SNB-75; assay: Growth inhibition of human SNB75 cells assessed as cell growth at 1 uM incubated for 48 hrs by sulforhodamine B assay relative to control; assay type: functional; conditions: SNB-75, 48 h, read-out: Activity
[27] = test system: MCF7; assay: Growth inhibition of human MCF7 cells assessed as cell growth at 1 uM incubated for 48 hrs by sulforhodamine B assay relative to control; assay type: functional; conditions: MCF7, 48 h, read-out: Activity
[28] = test system: SN12C; assay: Growth inhibition of human SN12C cells assessed as cell growth at 0.01 uM incubated for 48 hrs by sulforhodamine B assay relative to control; assay type: functional; conditions: read-out: Activity
[29] = test system: OVCAR-3; assay: Growth inhibition of human OVCAR3 cells assessed as cell growth at 100 uM incubated for 48 hrs by sulforhodamine B assay relative to control; assay type: functional; conditions: OVCAR-3, 48 h, read-out: Activity
[30] = test system: HCC 2998; assay: Growth inhibition of human HCC2998 cells assessed as cell growth at 100 uM incubated for 48 hrs by sulforhodamine B assay relative to control; assay type: functional; conditions: HCC 2998, 48 h, read-out: Activity
[31] = test system: SF-268; assay: Growth inhibition of human SF268 cells assessed as cell growth at 1 uM incubated for 48 hrs by sulforhodamine B assay relative to control; assay type: functional; conditions: SF-268, 48 h, read-out: Activity
[32] = read-out: LC50 (the source's name)
[33] = read-out: pLC50 (the source's name) (converted)

Work on `O=C(Nc1cccc(-n2cc(-c3ccncc3)c(-c3cc(O)cc(Cl)c3)n2)c1)Nc1ccc(Cl)c(C(F)(F)F)c1` yielded a growth at 100 µM [1] of -55%, a GI50 ([2]; read-out: GI50) of 3.15 µM and a CC50 [2, 32] of 95.5 µM. For the same compound, the TGI ([2]; read-out: TGI) was 13 µM, the GI50 ([2]; read-out: pGI50 (converted)) was 3.16 µM and the CC50 [2, 33] was 95.5 µM. For the same compound, the TGI ([2]; read-out: pTGI (converted)) was 12.9 µM, the growth at 1 µM [3] was 87% and the growth at 1 µM [4] was 96%. The growth at 0.1 µM [5] was 93%, the IC50 [6] was 2.1 µM and the GI50 ([6]; read-out: GI50) was 2.1 µM. It also gave a CC50 [6, 32] of 90.3 µM, a TGI ([6]; read-out: TGI) of 84.2 µM and a GI50 ([6]; read-out: pGI50 (converted)) of 2.63 µM. The CC50 [6, 33] was 79.4 µM, the TGI ([6]; read-out: pTGI (converted)) was 6.46 µM and the growth at 0.1 µM [7] was 95%. For the same compound, the LC50 [8] was 12.9 µM, the GI50 ([8]; read-out: GI50) was 1.42 µM and the TGI ([8]; read-out: TGI) was 36.6 µM. It also gave a GI50 ([8]; read-out: pGI50 (converted)) of 1.41 µM, a TGI ([8]; read-out: pTGI (converted)) of 3.89 µM and a GI50 ([9]; read-out: GI50) of 3.1 µM. For the same compound, the CC50 [9, 32] was > 100 µM, the TGI ([9]; read-out: TGI) was 18 µM and the GI50 ([9]; read-out: pGI50 (converted)) was 3.09 µM. The CC50 [9, 33] was > 100 µM, the TGI ([9]; read-out: pTGI (converted)) was 15.8 µM and the growth at 0.1 µM [10] was 91%. The growth at 1 µM [11] was 94%, the growth at 1 µM [12] was 91% and the growth at 0.01 µM [13] was 95%. For the same compound, the growth at 1 µM [14] was 99%, the GI50 ([15]; read-out: GI50) was 3.81 µM and the CC50 [15, 32] was > 100 µM. The TGI ([15]; read-out: TGI) was 12.6 µM, the GI50 ([15]; read-out: pGI50 (converted)) was 3.8 µM and the CC50 [15, 33] was > 100 µM. The TGI ([15]; read-out: pTGI (converted)) was 12.6 µM, the IC50 [16] was 2.34 µM and the GI50 ([16]; read-out: GI50) was 2.34 µM. For the same compound, the CC50 [16, 32] was > 100 µM, the TGI ([16]; read-out: TGI) was 50 µM and the GI50 ([16]; read-out: pGI50 (converted)) was 2.34 µM. For the same compound, the CC50 [16, 33] was > 100 µM, the TGI ([16]; read-out: pTGI (converted)) was 6.61 µM and the growth at 100 µM [17] was -41%. For the same compound, the growth at 1 µM [18] was 84%, the growth at 1 µM [19] was 97% and the growth at 100 µM [20] was -38%. It also gave a growth at 100 µM [21] of -15%, a growth at 0.1 µM [22] of 95% and a growth at 0.01 µM [23] of 91%. For the same compound, the growth at 0.01 µM [24] was 105%, the growth at 0.1 µM [25] was 91% and the growth at 1 µM [26] was 54%. It also gave a growth at 1 µM [27] of 91%, a growth at 0.01 µM [28] of 102% and a growth at 100 µM [29] of -1%. For the same compound, the growth at 100 µM [30] was -88% and the growth at 1 µM [31] was 92%.

Reference: ChEMBL document CHEMBL4308841, “Synthesis, in vitro antiproliferative activity, and kinase inhibitory effects of pyrazole-containing diarylureas and diarylamides” (Eur J Med Chem, 2018)
